Source: US7468392B1, “Anti-fatigue cyclohexenone compounds from antrodia camphorata” (Golden Biotechnology Corporation, priority 2007, dated 2008)
Entries after “also recorded” stand apart in the source; their conditions may differ.

Experiments:
Assay type in all cases: in vivo, human
healthy male volunteers [1] = test: Creatine phosphate kinase (CPK) activity in plasma before/after exhaustive exercise at 80% VO2max; details: for creatine phosphate kinase levels: plasma, Mean, n = 15
Method: (§1) The present invention is based on supplementing cyclohexenone of Antrodia camphorata or placebo with no cyclohexenone of Antrodia camphorata to the subjects. The subjects were tested for the anti-fatigue function after supplementing cyclohexenone of Antrodia camphorata by measuring the amounts of fatigue indexes such as CPK, lactic acid, glucose, ammonia and free fatty acid before and after exhaustive exercise load at 80% VO2max.
(§2) Subjects were randomized to receive either cyclohexenone of Antrodia camphorata or placebo. Placebo contained substances such as cornstarch but no cyclohexenone of Antrodia camphorata. A double-blind, cross-over method was performed in this study where neither the evaluator nor the subject knew the content of the test substances. Based on rules of order balance, each subject have to receive the following tests: relaxing and receiving placebo (PR), exercising and receiving placebo (PE), relaxing and receiving cyclohexenone of Antrodia camphorata (DR), and exercising and receiving cyclohexenone of Antrodia camphorata (DE). Each test was carried out for one week, and took one week off before the next test until all 4 tests were performed in each subject. The exercise was performed on a treadmill with the load intensity at the measured 80% VO2max (7.61±1.87) until exhausted. Subjects received cyclohexenone of Antrodia camphorata or placebo after exercise in the amount of 0.2 g/kg body weight per day. […] Blood was collected in anticoagulant (such as EDTA) containing collection tubes, and was centrifuged at 3000 g. for 10 min to collect the plasma. The fatigue indexes such as CPK, lactic acid, glucose, ammonia and free fatty acid were analyzed accordingly. The physiological and biochemical changes before and after exercise with different supplements were compared and shown as values of mean and standard error (Mean±SEM). […] The details for the biochemical analysis and results are described below:
The measurement of creatine phosphate kinase was performed with an automated blood analyzer Johnson & Johnson DT-60II based on enzyme function and spectrophotometric theory. Creatine phosphate […] was added into a defined amount of plasma to react, followed by addition of 4-aminoantipyrine and 1,7-dihydroxynaphthalene. A […] product was formed through peroxidase function. The absorbance at 680 nm was measured to obtain the concentration of creatine kinase.

healthy male volunteers [2] = test: Blood glucose before meals, before/after exhaustive exercise at 80% VO2max; details: for blood glucose levels: plasma, Mean, n = 15; for effect of supplementation on blood glucose metabolism before meals: exhaustive exercise at 80% VO2max, versus placebo
Method: as §1, §2
The measurement of blood glucose was performed with an automated blood analyzer Johnson & Johnson DT-600 II based on enzyme function and spectrophotometric method. Glucose oxidase was added into a defined amount of plasma for reaction, followed by addition of 4-aminoantipyrine and 1,7-dihydroxyphthalene. A red product was formed through function of peroxidase. The reactions are shown below:
The absorbance at 555 nm was measured to obtain the concentration of blood glucose.

healthy male volunteers [3] = test: Ammonia levels in blood before/after exhaustive exercise at 80% VO2max; details: for blood ammonia levels: plasma, Mean, n = 15; for effect of supplementation after exercise on metabolism of blood ammonia: exhaustive exercise at 80% VO2max, versus placebo
Method: as §1, §2
The measurement of blood ammonia was performed with an automated blood analyzer Johnson & Johnson DT-60II based on the spectrophotometric method. Bromphenol blue was added into a defined amount of plasma to generate blue products. The reaction is shown below:
The absorbance at 605 nm was measured to obtain the concentration of blood ammonia.

healthy male volunteers [4] = test: Lactate levels in blood before/after exhaustive exercise at 80% VO2max; details: for blood lactate levels: plasma, Mean, n = 15; for effect of supplementation after exercise on metabolism of blood lactate: exhaustive exercise at 80% VO2max, versus placebo
Method: as §1, §2
The measurement of blood lactate was performed with an automated blood analyzer using dry chemistry method (Johnson & Johnson DT-60II) based on enzyme function and spectrophotometric theory. Lactate oxidase was added into a defined amount of plasma for reaction, followed by addition of 4-aminoantipyrine and 1,7-dihydroxynaphthalene. A red product was formed through activities of peroxidase. The reactions are shown below:
The absorbance at 540 nm was measured to obtain the concentration of blood lactate.

[5] = Relax (DR), Post-exercise 0.5 h
[6] = Relax (DR), Post-exercise 120 h
[7] = Relax (DR), Post-exercise 168 h
[8] = exercise (DE), Post-exercise 0 h
[9] = exercise (DE), Post-exercise 0.5 h
[10] = exercise (DE), Post-exercise 1 h
[11] = exercise (DE), Post-exercise 2 h
[12] = exercise (DE), Post-exercise 24 h
[13] = exercise (DE), Post-exercise 48 h
[14] = exercise (DE), Post-exercise 72 h
[15] = exercise (DE), Post-exercise 120 h
[16] = exercise (DE), Post-exercise 168 h
[17] = exercise (DE), Prior to exercise
[18] = listed as cyclohexenone from Antrodia camphorata
[19] = listed as cyclohexenone of Antrodia camphorata

With `COC1=C(OC)C(O)C(C/C=C(\C)CC/C=C(\C)CCC=C(C)C)C(C)C1=O` (centres unmarked) [cyclohexenone, 4-hydroxy-2,3-dimethoxy-6-methyl-5(3,7,11-trimethyl-dodeca-2,6,10-trienyl)-cyclohex-2-enone] the “creatine phosphate kinase levels” value (healthy male volunteers [1]; Relax (DR), Post-exercise 0 h) was 150.20 U/L, the “creatine phosphate kinase levels” value (healthy male volunteers [1]; [5]) was 166.53 U/L and the “creatine phosphate kinase levels” value (healthy male volunteers [1]; Relax (DR), Post-exercise 1 h) was 167.40 U/L. For the same molecule, the “creatine phosphate kinase levels” value (healthy male volunteers [1]; Relax (DR), Post-exercise 2 h) was 146.33 U/L, the “creatine phosphate kinase levels” value (healthy male volunteers [1]; Relax (DR), Post-exercise 24 h) was 158.47 U/L and the “creatine phosphate kinase levels” value (healthy male volunteers [1]; Relax (DR), Post-exercise 48 h) was 133.87 U/L. For the same molecule, the “creatine phosphate kinase levels” value (healthy male volunteers [1]; Relax (DR), Post-exercise 72 h) was 165.73 U/L, the “creatine phosphate kinase levels” value (healthy male volunteers [1]; [6]) was 243.00 U/L and the “creatine phosphate kinase levels” value (healthy male volunteers [1]; [7]) was 183.27 U/L. For the same molecule, the “creatine phosphate kinase levels” value (healthy male volunteers [1]; Relax (DR), Prior to exercise) was 167.27 U/L, the “creatine phosphate kinase levels” value (healthy male volunteers [1]; [8]) was 259.57 U/L and the “creatine phosphate kinase levels” value (healthy male volunteers [1]; [9]) was 221.86 U/L. For the same molecule, the “creatine phosphate kinase levels” value (healthy male volunteers [1]; [10]) was 232.93 U/L, the “creatine phosphate kinase levels” value (healthy male volunteers [1]; [11]) was 208.07 U/L and the “creatine phosphate kinase levels” value (healthy male volunteers [1]; [12]) was 332.50 U/L. The “creatine phosphate kinase levels” value (healthy male volunteers [1]; [13]) was 244.00 U/L, the “creatine phosphate kinase levels” value (healthy male volunteers [1]; [14]) was 193.86 U/L and the “creatine phosphate kinase levels” value (healthy male volunteers [1]; [15]) was 193.86 U/L. The “creatine phosphate kinase levels” value (healthy male volunteers [1]; [16]) was 204.83 U/L, the “creatine phosphate kinase levels” value (healthy male volunteers [1]; [17]) was 226.64 U/L and the “effect of supplementation after exercise on creatine phosphate kinase levels” value (healthy male volunteers [1]; exhaustive exercise at 80% VO2max, 0.2 g/kg body weight per day, versus placebo, listed as cyclohexenone from Antrodia camphorata) was “effectively decreases the muscular injury marker of creatine phosphate kinase levels; also recorded: significant effect (p<0.05) in metabolism of creatine phosphate kinase”. For the same molecule, the blood glucose levels (healthy male volunteers [2]; Relax (DR), Post-exercise 0 h) was 91.93 mg/dL, the blood glucose levels (healthy male volunteers [2]; [5]) was 93.33 mg/dL and the blood glucose levels (healthy male volunteers [2]; Relax (DR), Post-exercise 1 h) was 95.53 mg/dL. The blood glucose levels (healthy male volunteers [2]; Relax (DR), Post-exercise 2 h) was 103.20 mg/dL, the blood glucose levels (healthy male volunteers [2]; Relax (DR), Post-exercise 24 h) was 90.00 mg/dL and the blood glucose levels (healthy male volunteers [2]; Relax (DR), Post-exercise 48 h) was 90.40 mg/dL. For the same molecule, the blood glucose levels (healthy male volunteers [2]; Relax (DR), Post-exercise 72 h) was 93.40 mg/dL, the blood glucose levels (healthy male volunteers [2]; [6]) was 94.00 mg/dL and the blood glucose levels (healthy male volunteers [2]; [7]) was 92.20 mg/dL. The blood glucose levels (healthy male volunteers [2]; Relax (DR), Prior to exercise) was 91.73 mg/dL, the blood glucose levels (healthy male volunteers [2]; [8]) was 103.43 mg/dL and the blood glucose levels (healthy male volunteers [2]; [9]) was 88.71 mg/dL. For the same molecule, the blood glucose levels (healthy male volunteers [2]; [10]) was 93.86 mg/dL, the blood glucose levels (healthy male volunteers [2]; [11]) was 101.07 mg/dL and the blood glucose levels (healthy male volunteers [2]; [12]) was 94.43 mg/dL. It also gave a blood glucose levels (healthy male volunteers [2]; [13]) of 89.21 mg/dL, a blood glucose levels (healthy male volunteers [2]; [14]) of 93.00 mg/dL and a blood glucose levels (healthy male volunteers [2]; [15]) of 93.29 mg/dL. For the same molecule, the blood glucose levels (healthy male volunteers [2]; [16]) was 92.93 mg/dL, the blood glucose levels (healthy male volunteers [2]; [17]) was 89.21 mg/dL and the “effect of supplementation on blood glucose metabolism before meals” value (healthy male volunteers [2]; [18]) was “no effect”. For the same molecule, the “effect of supplementation on blood glucose metabolism before meals” value (healthy male volunteers [2]; [19]) was “no significant difference”, the “ammonia levels in DE group versus those before exercise” value (healthy male volunteers [3]; 24 h post exercise) was “significantly lower” and the blood ammonia levels (healthy male volunteers [3]; Relax (DR), Post-exercise 0 h) was 55.60 µg/dL. It also gave a blood ammonia levels (healthy male volunteers [3]; [5]) of 52.53 µg/dL, a blood ammonia levels (healthy male volunteers [3]; Relax (DR), Post-exercise 1 h) of 57.47 µg/dL and a blood ammonia levels (healthy male volunteers [3]; Relax (DR), Post-exercise 2 h) of 54.07 µg/dL. The blood ammonia levels (healthy male volunteers [3]; Relax (DR), Post-exercise 24 h) was 30.33 µg/dL, the blood ammonia levels (healthy male volunteers [3]; Relax (DR), Post-exercise 48 h) was 26.86 µg/dL and the blood ammonia levels (healthy male volunteers [3]; Relax (DR), Post-exercise 72 h) was 25.20 µg/dL. For the same molecule, the blood ammonia levels (healthy male volunteers [3]; [6]) was 27.80 µg/dL, the blood ammonia levels (healthy male volunteers [3]; [7]) was 28.57 µg/dL and the blood ammonia levels (healthy male volunteers [3]; Relax (DR), Prior to exercise) was 39.20 µg/dL. For the same molecule, the blood ammonia levels (healthy male volunteers [3]; [8]) was 118.07 µg/dL, the blood ammonia levels (healthy male volunteers [3]; [9]) was 57.64 µg/dL and the blood ammonia levels (healthy male volunteers [3]; [10]) was 44.86 µg/dL. The blood ammonia levels (healthy male volunteers [3]; [11]) was 37.53 µg/dL, the blood ammonia levels (healthy male volunteers [3]; [12]) was 27.93 µg/dL and the blood ammonia levels (healthy male volunteers [3]; [13]) was 20.93 µg/dL. For the same molecule, the blood ammonia levels (healthy male volunteers [3]; [14]) was 30.07 µg/dL, the blood ammonia levels (healthy male volunteers [3]; [15]) was 23.21 µg/dL and the blood ammonia levels (healthy male volunteers [3]; [16]) was 24.86 µg/dL. For the same molecule, the blood ammonia levels (healthy male volunteers [3]; [17]) was 45.86 µg/dL, the “effect of supplementation after exercise on metabolism of blood ammonia” value (healthy male volunteers [3]; [18]) was “facilitates the metabolism of blood ammonia” and the “effect of supplementation after exercise on metabolism of blood ammonia” value (healthy male volunteers [3]; listed as cyclohexenone from Antrodia camphorea) was “beneficial to the recovery of creatine phosphate kinase and blood ammonia”. For the same molecule, the “blood ammonia level, exercise group versus relax group receiving cyclohexenone” value (healthy male volunteers [3]; post exercise at 2 h, p<0.05) was “significantly superior”, the blood lactate levels (healthy male volunteers [4]; Relax (DR), Post-exercise 0 h) was 2.39 mmol/L and the blood lactate levels (healthy male volunteers [4]; [5]) was 2.25 mmol/L. It also gave a blood lactate levels (healthy male volunteers [4]; Relax (DR), Post-exercise 1 h) of 3.00 mmol/L, a blood lactate levels (healthy male volunteers [4]; Relax (DR), Post-exercise 2 h) of 2.52 mmol/L and a blood lactate levels (healthy male volunteers [4]; Relax (DR), Post-exercise 24 h) of 2.26 mmol/L. It also gave a blood lactate levels (healthy male volunteers [4]; Relax (DR), Post-exercise 48 h) of 2.71 mmol/L, a blood lactate levels (healthy male volunteers [4]; Relax (DR), Post-exercise 72 h) of 2.22 mmol/L and a blood lactate levels (healthy male volunteers [4]; [6]) of 2.41 mmol/L. The blood lactate levels (healthy male volunteers [4]; [7]) was 2.41 mmol/L, the blood lactate levels (healthy male volunteers [4]; Relax (DR), Prior to exercise) was 2.54 mmol/L and the blood lactate levels (healthy male volunteers [4]; [8]) was 7.07 mmol/L. For the same molecule, the blood lactate levels (healthy male volunteers [4]; [9]) was 3.20 mmol/L, the blood lactate levels (healthy male volunteers [4]; [10]) was 2.96 mmol/L and the blood lactate levels (healthy male volunteers [4]; [11]) was 2.9 mmol/L. For the same molecule, the blood lactate levels (healthy male volunteers [4]; [12]) was 2.39 mmol/L, the blood lactate levels (healthy male volunteers [4]; [13]) was 2.77 mmol/L and the blood lactate levels (healthy male volunteers [4]; [14]) was 2.18 mmol/L. The blood lactate levels (healthy male volunteers [4]; [15]) was 2.53 mmol/L, the blood lactate levels (healthy male volunteers [4]; [16]) was 2.23 mmol/L and the blood lactate levels (healthy male volunteers [4]; [17]) was 2.50 mmol/L. For the same molecule, the “effect of supplementation after exercise on metabolism of blood lactate” value (healthy male volunteers [4]; [18]) was “did not affect the metabolism of blood lactate” and the “effect of supplementation after exercise on metabolism of blood lactate” value (healthy male volunteers [4]; [19]) was “no significant difference”.
